Measured values from ChEMBL document CHEMBL3797128, “N,N-Disubstituted thiourea and urea derivatives: design, synthesis, docking studies and biological evaluation against nitric oxide synthase” (Medchemcomm, 2016).
Active and inactive are the calls of the source. No cut-off for these calls is given here.

Columns and labels:
[1] = target: Nitric oxide synthase, inducible (Homo sapiens) (UniProt P35228); assay: Inhibition of recombinant N-terminal His-tagged human iNOS expressed in Escherichia coli assessed as L-[3H]-citrulline formation at 1 mM using L-[3H]-arginine as substrate after 30 mins by liquid scintillation spectroscopy
Target sequence in this assay (P35228 whole entry): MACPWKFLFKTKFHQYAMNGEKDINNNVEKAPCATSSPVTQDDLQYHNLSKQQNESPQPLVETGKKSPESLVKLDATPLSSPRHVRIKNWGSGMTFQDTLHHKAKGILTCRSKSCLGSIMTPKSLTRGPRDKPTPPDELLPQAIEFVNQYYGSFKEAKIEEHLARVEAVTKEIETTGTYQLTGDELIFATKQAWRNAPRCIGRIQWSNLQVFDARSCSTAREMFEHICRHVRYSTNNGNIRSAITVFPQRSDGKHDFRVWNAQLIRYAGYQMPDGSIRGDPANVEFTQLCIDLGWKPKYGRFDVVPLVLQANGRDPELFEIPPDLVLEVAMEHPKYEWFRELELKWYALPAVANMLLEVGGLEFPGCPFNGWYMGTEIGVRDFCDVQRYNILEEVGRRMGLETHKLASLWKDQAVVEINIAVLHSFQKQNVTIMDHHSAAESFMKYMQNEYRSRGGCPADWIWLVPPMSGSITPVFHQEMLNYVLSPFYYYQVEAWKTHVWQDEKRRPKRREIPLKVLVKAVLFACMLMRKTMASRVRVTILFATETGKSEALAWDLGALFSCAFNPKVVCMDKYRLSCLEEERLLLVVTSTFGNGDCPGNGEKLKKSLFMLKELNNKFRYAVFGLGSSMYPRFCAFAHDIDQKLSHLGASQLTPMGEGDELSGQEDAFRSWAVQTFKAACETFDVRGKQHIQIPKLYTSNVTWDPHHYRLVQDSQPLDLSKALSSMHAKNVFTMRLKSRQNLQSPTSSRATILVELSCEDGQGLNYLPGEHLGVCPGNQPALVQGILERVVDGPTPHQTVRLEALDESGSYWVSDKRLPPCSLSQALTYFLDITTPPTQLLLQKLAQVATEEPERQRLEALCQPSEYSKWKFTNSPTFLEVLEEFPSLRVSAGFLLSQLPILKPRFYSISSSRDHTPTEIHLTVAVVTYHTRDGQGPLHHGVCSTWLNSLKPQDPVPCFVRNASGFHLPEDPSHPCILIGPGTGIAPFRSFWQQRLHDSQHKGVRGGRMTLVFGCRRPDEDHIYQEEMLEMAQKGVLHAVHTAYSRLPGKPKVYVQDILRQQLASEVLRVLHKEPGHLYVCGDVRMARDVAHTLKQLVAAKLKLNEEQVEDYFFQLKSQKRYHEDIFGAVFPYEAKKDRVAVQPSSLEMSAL

[2] = target: Nitric oxide synthase 1 (Homo sapiens) (UniProt P29475); assay: Inhibition of recombinant nNOS (unknown origin) assessed as L-[3H]-citrulline formation at 1 mM using L-[3H]-arginine as substrate after 30 mins by liquid scintillation spectroscopy
Chain of Nitric oxide synthase 1 (Homo sapiens) (P29475 whole entry): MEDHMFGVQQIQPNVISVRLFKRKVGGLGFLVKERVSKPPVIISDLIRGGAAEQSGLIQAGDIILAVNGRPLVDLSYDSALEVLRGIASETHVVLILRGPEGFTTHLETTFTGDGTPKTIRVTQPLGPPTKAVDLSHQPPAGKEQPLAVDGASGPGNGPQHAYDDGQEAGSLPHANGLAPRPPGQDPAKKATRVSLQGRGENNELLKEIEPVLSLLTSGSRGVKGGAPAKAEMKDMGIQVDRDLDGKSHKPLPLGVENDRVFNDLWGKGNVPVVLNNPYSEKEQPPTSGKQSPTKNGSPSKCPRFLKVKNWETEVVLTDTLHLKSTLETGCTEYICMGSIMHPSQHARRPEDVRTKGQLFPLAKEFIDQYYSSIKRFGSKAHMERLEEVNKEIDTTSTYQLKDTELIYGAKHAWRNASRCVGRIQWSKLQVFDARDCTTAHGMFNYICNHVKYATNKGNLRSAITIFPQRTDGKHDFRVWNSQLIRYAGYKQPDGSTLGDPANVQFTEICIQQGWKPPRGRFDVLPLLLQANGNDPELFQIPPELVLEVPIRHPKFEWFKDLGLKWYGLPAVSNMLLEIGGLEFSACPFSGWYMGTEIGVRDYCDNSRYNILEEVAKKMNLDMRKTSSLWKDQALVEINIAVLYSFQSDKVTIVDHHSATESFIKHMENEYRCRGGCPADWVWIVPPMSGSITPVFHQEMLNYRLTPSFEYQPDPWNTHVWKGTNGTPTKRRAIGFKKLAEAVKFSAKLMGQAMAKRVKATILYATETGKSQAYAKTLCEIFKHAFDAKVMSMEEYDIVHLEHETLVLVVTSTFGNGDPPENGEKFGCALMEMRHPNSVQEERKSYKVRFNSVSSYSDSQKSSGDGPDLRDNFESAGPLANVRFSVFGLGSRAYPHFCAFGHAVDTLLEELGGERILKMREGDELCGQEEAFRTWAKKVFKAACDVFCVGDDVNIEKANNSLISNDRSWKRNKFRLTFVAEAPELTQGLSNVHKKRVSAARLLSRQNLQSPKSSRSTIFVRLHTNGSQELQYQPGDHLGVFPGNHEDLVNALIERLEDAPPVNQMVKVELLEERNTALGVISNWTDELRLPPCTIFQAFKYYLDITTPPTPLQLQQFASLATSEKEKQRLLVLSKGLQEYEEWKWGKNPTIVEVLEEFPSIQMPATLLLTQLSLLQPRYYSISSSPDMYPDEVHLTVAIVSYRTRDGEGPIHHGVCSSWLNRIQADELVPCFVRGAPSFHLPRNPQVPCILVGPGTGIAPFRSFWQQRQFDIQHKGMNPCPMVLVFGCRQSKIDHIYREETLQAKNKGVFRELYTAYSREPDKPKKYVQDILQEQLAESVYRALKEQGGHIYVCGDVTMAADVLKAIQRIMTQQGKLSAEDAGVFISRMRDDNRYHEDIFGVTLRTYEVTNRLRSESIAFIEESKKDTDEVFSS

[3] = target: Nitric oxide synthase, inducible (Homo sapiens) (UniProt P35228); assay: Inhibition of recombinant iNOS (unknown origin) assessed as L-[3H]-citrulline formation using L-[3H]-arginine as substrate after 30 mins by liquid scintillation spectroscopy
Target sequence in this assay (P35228 whole entry, looked up): as the sequence (P35228 whole entry) above

[4] = target: Nitric oxide synthase, brain (Homo sapiens) (UniProt P29475); assay: Inhibition of recombinant N-terminal His-tagged human nNOS expressed in Escherichia coli assessed as L-[3H]-citrulline formation using L-[3H]-arginine as substrate after 30 mins by liquid scintillation spectroscopy
Chain of Nitric oxide synthase, brain (Homo sapiens) (P29475 whole entry, looked up): as the sequence (P29475 whole entry) above

[5] = target: T1, Nitric oxide synthase 3 (Rattus norvegicus) (UniProt Q62600); assay: Inhibition of eNOS in Wistar rat aortic rings assessed as suppression of acetylcholine evoked endothelial dependent relaxation of precontracted aortic rings at 100 umol/l after 30 mins
T1 sequence (whole entry): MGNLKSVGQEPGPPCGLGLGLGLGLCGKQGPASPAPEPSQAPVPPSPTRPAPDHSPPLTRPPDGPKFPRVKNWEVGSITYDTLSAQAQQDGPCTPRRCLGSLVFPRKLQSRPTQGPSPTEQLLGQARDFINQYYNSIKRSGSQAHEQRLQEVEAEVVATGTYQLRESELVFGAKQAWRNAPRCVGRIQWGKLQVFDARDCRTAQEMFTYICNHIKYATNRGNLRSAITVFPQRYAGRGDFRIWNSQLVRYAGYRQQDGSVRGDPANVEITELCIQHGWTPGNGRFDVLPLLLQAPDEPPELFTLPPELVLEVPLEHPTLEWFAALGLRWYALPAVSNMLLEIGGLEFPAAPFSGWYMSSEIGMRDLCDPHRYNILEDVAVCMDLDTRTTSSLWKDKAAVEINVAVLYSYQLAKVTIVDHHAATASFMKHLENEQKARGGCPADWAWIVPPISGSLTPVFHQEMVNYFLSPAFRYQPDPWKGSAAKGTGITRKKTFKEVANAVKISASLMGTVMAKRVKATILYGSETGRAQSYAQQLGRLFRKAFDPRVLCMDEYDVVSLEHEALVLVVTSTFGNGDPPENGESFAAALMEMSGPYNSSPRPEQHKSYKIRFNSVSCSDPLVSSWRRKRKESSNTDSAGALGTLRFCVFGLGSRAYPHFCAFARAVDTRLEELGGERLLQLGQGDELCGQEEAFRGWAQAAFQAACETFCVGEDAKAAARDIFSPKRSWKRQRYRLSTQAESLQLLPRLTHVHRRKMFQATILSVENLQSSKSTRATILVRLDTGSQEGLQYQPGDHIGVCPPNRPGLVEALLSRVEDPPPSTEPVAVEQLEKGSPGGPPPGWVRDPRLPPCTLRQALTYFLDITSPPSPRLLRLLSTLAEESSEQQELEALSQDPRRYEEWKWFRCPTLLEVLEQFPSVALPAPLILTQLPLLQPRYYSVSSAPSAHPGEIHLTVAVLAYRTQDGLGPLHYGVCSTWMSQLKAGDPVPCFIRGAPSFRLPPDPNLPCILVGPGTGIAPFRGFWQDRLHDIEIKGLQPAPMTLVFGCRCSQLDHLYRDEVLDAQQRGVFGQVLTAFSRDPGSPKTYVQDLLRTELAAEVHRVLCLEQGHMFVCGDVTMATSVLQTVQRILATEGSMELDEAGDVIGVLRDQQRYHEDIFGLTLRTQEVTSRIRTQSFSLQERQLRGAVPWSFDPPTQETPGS

[6] = target: T2, Nitric oxide synthase 3 (Homo sapiens) (UniProt P29474); assay: Inhibition of eNOS in HUVEC cells assessed as A23187 stimulated nitric oxide production at 100 umol/L preincubated for 30 mins using L-arginine as substrate for 5 mins followed A23187 addition measured after 30 mins by DAF2 dye based spectrofluorimetry; format: cell-based
T2 sequence (whole entry): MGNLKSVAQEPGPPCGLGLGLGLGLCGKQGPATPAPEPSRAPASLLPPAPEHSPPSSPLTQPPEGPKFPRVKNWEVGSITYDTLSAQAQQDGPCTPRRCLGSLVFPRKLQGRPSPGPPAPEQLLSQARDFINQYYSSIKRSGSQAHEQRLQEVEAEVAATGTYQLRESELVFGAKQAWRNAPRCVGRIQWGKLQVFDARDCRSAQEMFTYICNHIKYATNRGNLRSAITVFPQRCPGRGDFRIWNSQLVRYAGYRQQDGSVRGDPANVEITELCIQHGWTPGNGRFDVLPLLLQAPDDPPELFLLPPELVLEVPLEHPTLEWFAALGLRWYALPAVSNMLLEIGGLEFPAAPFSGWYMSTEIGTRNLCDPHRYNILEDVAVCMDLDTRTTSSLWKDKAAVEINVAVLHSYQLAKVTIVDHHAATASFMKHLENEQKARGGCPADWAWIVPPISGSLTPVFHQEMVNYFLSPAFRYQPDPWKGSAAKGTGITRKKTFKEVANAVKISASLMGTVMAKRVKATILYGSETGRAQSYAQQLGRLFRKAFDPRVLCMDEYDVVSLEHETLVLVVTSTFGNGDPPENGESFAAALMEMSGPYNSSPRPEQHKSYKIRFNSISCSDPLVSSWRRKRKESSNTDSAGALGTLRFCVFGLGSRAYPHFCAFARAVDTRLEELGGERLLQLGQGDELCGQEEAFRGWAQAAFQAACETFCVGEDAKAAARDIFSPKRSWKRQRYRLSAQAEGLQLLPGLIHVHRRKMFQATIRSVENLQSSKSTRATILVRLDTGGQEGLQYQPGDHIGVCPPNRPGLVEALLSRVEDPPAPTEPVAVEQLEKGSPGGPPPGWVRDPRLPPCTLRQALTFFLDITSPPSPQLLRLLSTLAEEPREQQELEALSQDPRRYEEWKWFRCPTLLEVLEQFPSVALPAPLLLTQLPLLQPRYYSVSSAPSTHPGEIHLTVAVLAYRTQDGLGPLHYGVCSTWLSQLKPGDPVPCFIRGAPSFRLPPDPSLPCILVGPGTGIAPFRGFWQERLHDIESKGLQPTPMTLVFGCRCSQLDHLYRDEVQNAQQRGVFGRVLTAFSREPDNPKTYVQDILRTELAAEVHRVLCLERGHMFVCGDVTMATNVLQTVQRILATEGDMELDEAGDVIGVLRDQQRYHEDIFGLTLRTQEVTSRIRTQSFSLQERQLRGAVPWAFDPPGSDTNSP

[7] = target: T1, Nitric oxide synthase 3 (Rattus norvegicus); assay: Inhibition of eNOS in Wistar rat aortic rings assessed as effect on acetylcholine evoked endothelial dependent relaxation of precontracted aortic rings at 100 umol/l after 30 mins
HUVEC = assay: Cytotoxicity against HUVEC cells assessed as reduction in cell viability at >1 mM after 30 mins by MTT assay; format: cell-based; conditions: human, 0.5 h

| inhibition [1] | inhibition [2] | SMILES | other results |
| --- | --- | --- | --- |
| 14.7% | 15.8% | CCCNC(=O)NCCC(O)c1cc(OC)ccc1N (stereo unspecified) |  |
| 19.6% | 23.8% | CCCNC(=O)NCCC(O)c1cc(Cl)ccc1N (stereo unspecified) |  |
| 10.9% |  | COc1ccc(N)c(C(=O)CCNC(=O)c2ccccc2)c1 |  |
| 9.24% |  | COc1ccc(N)c(C(=O)CCNC(=O)C2CCCCC2)c1 |  |
| 19% | 7% | CCCNC(=O)NCCC(O)c1ccccc1N (stereo unspecified) |  |
| 22.1% | 70.5% | CNC(=S)NCCC(O)c1cc(Cl)ccc1N (stereo unspecified) | IC50 [3]: > 1000 µM; IC50 [4]: 710 µM |
| 55% | 32.4% | CCCNC(=S)NCCC(O)c1cc(Cl)ccc1N (stereo unspecified) | IC50 [3]: 860 µM; IC50 [4]: > 1000 µM |
| 19.4% | 44.8% | CCNC(=S)NCCC(O)c1ccccc1N (stereo unspecified) |  |
| 20.7% | 70.2% | CNC(=S)NCCC(O)c1ccccc1N (stereo unspecified) | IC50 [3]: > 1000 µM; IC50 [4]: 350 µM |
| 60.4% | 70.6% | CCNC(=S)NCCC(O)c1cc(Cl)ccc1N (stereo unspecified) | IC50 [3]: 800 µM; IC50 [4]: 770 µM |
| 78.2% | 46% | CNC(=S)NCCC(=O)c1cc(OC)ccc1N |  |
| 12.3% | 12.1% | COc1ccc(N)c(C(O)CCNC(=O)Nc2ccccc2)c1 (stereo unspecified) |  |
| 0.01% |  | COc1ccc(N)c(C(=O)CCNC(=O)C2CCC2)c1 |  |
| 76.5% | 80.5% | CNC(=S)NCCC(O)c1cc(OC)ccc1N (stereo unspecified) | inhibition [6]: inactive; inhibition [7]: inactive; Activity (HUVEC): 20%; IC50 [3]: 180 µM; IC50 [4]: 130 µM |
| 19.7% |  | CC(=O)NCCC(=O)c1cc(Cl)ccc1N |  |
| 30.7% |  | COc1ccc(N)c(C(=O)CCNC(C)=O)c1 |  |

More lines, now with the values behind:

| SMILES | inhibition [1] | inhibition [2] | other results |
| --- | --- | --- | --- |
| Nc1ccc(Cl)cc1C(=O)CCNC(=O)C1CC1 | 5.37% |  |  |
| CCNC(=O)NCCC(=O)c1cc(Cl)ccc1N | 78.6% | 9.86% |  |
| COc1ccc(N)c(C(=O)CCNC(=O)C2CC2)c1 | 2.66% |  |  |
| Nc1ccc(Cl)cc1C(O)CCNC(=O)Nc1ccccc1 (stereo unspecified) | 3.11% | 38.6% |  |
| CCNC(=O)NCCC(O)c1cc(OC)ccc1N (stereo unspecified) | 26.6% | 43% |  |
| COc1ccc(N)c(C(=O)CCNC(=O)C2CCCC2)c1 | 0.61% |  |  |
| CCCNC(=S)NCCC(O)c1ccccc1N (stereo unspecified) | 31.1% | 51.7% | IC50 [3]: > 1000 µM; IC50 [4]: 880 µM |
| COC(=O)[C@@H](N)CCCNC(=N)N[N+](=O)[O-] |  |  | inhibition [5]: Active |
| Nc1ccccc1C(O)CCNC(=O)Nc1ccccc1 (stereo unspecified) | 27.9% | 17.7% |  |
| Nc1ccc(Cl)cc1C(=O)CCNC(=O)c1ccccc1 | 26.6% |  |  |
| CCNC(=O)NCCC(O)c1cc(Cl)ccc1N (stereo unspecified) | 33.9% | 15.2% |  |
| CCCNC(=S)NCCC(O)c1cc(OC)ccc1N (stereo unspecified) | 25.4% | 6.02% |  |
| CCCC(=O)NCCC(=O)c1cc(OC)ccc1N | 7.35% |  |  |
| CCCCC(=O)NCCC(=O)c1cc(OC)ccc1N | 14.1% |  |  |
| CCNC(=O)NCCC(O)c1ccccc1N (stereo unspecified) | 18.3% | 7.81% |  |
| CCC(=O)NCCC(=O)c1cc(OC)ccc1N | 0.24% |  |  |
